From patent US20120149708A1, “MODULATORS OF VIRAL TRANSCRIPTION, AND METHODS AND COMPOSITIONS THEREWITH” (George Mason University, priority 2010, published 2012)

Legend:
Assay type in all cases: cell-based
[1] = system: Jurkat T-cells (uninfected); assay: Cell viability by trypan blue exclusion, 48 hours; conditions: for % Inhibition (percent dead cells) Jurkat: 10 μM, 48 hours
Method: (§1) TZM-bl cell lines were grown in Dulbecco's modified Eagle's medium supplemented with fetal bovine serum (FBS) (10%, v/v), 2 mM L-glutamine, and antibiotics (penicillin 100 U/ml, streptomycin […]) (cDMEM). HCT116 WT and HCT116 Dicer−/−cell lines were grown in McCoy's medium supplemented with FBS (10%, v/v), 2mM L-glutamine, and antibiotics (penicillin 100 U/ml, streptomycin […]). CEM, ACH2, Jurkat and U937 cells were grown in RPMI 1640 supplemented with FBS, L-glutamine, and antibiotics (penicillin 100 U/ml, streptomycin […]). All cell lines were maintained at 37° C. in 5% (v/v) CO2. […]
(§2) In brief, the inhibition studies were carried out as follows. HIV-1 infected cells ACH2, J1.1, OM10.1, U1 and uninfected CEM, Jurkat T-cells, and U937 were cultured in media. The appropriate inhibitor was added at a concentration of 10 μM. Cells were treated for 48 hours and cell viability was determined using trypan blue exclusion method. Results of such a screen for 19 inhibitors is shown in Table 1 where percent dead cells are indicated each drug tested.
(§3) Again HIV-1 infected and uninfected cells were treated with eighteen Formula I compounds at a drug concentration of 50 nm. Forty-eight hours after treatment, cytotoxicity was determined by trypan blue dye exclusion. Percent inhibition was calculated after obtaining the cell density for each well of the tissue culture plate at the end of 48 hrs.

[2] = system: ACH2 cells (HIV-1 infected); assay: Cell viability by trypan blue exclusion, 48 hours; conditions: HIV-1 infected; for % Inhibition (percent dead cells) ACH2: 10 μM, 48 hours
Method: as §1, §2, §3

[3] = system: U937 cells (uninfected); assay: Cell viability by trypan blue exclusion, 48 hours; conditions: for % Inhibition (percent dead cells) U937: 10 μM, 48 hours
Method: (§4) TZM-bl cell lines were grown in Dulbecco's modified Eagle's medium supplemented with fetal bovine serum (FBS) (10%, v/v), 2 mM L-glutamine, and antibiotics (penicillin 100 U/ml, streptomycin […]) (cDMEM). HCT116 WT and HCT116 Dicer−/−cell lines were grown in McCoy's medium supplemented with FBS (10%, v/v), 2mM L-glutamine, and antibiotics (penicillin 100 U/ml, streptomycin […]). CEM, ACH2, Jurkat and U937 cells were grown in RPMI 1640 supplemented with FBS, L-glutamine, and antibiotics (penicillin 100 U/ml, streptomycin […]). All cell lines were maintained at 37° C. in 5% (v/v) CO2.
(§5) ACH2 cells are infected with HIV-1; TZM-bl cells contain a stably-integrated HIV-1 LTR-Luciferase reporter; CEM, Jurkat, and U937 cells are uninfected. Transfections were carried out using Attractene (Qiagen) lipid reagent. Cells were cultured to confluence and pelleted at 4° C. for 15 min at 3,000 rpm. The cell pellets were washed twice with 25 ml of phosphate-buffered saline (PBS) with Ca2+ and Mg2+ (Quality Biological) and centrifuged once more. Cell pellets were resuspended in lysis buffer (50 mM Tris-HCl, pH 7.5, 120 mM NaCl, 5 mM EDTA, 0.5%, v/v, NP-40, 50 mM NaF, 0.2 mM Na3VO4, 1 mM DTT, one complete protease cocktail tablet/50 ml (Roche) and incubated on ice for 20 min, with gentle vortexing every 5 min. Cell lysates were transferred to eppendorf tubes and were centrifuged at 10,000 rpm for 10 min. Supernatants were transferred to a fresh tube where protein concentrations were determined using Bio-Rad protein assay (Bio-Rad, Hercules, Calif.).
as §2, §3

[4] = system: CEM cells (uninfected); assay: Cell viability by trypan blue exclusion, 48 hours; conditions: for % Inhibition (percent dead cells) CEM: 10 μM, 48 hours
Method: as §4, §5, §2, §3

[5] = system: HIV-1 infected and uninfected cells; assay: Classification of inhibitors by effect on viability of infected versus uninfected cells; conditions: high
Text: The inhibitors were classified into three categories: high, moderate or poor, according to their effect on cellular viability in both HIV-1 infected and uninfected cells. Among the compounds tested in this study, CR8, a purine analog bearing a 2-pyridyl group para to the phenyl ring position 6 of the purine was the most promising drug candidate that killed HIV-1 infected cells, while having little or no effect on the death of uninfected cells.

[6] = system: U1 cells (HIV-1 infected); assay: Cell viability by trypan blue exclusion, 48 hours; conditions: HIV-1 infected; for % Inhibition (percent dead cells) U1: 10 μM, 48 hours
Method: as §2, §3

[7] = system: OM10.1 cells (HIV-1 infected); assay: Cell viability by trypan blue exclusion, 48 hours; conditions: HIV-1 infected; for % Inhibition (percent dead cells) OM10.1: 10 μM, 48 hours
Method: as §2, §3

[8] = system: J1.1 cells (HIV-1 infected); assay: Cell viability by trypan blue exclusion, 48 hours; conditions: HIV-1 infected; for % Inhibition (percent dead cells) J1.1: 10 μM, 48 hours
Method: as §2, §3

[9] = system: HIV-1 LTR-CAT reporter; assay: CAT assay of Tat-mediated transactivation in HCT116 WT and Dicer-/- cells; conditions: HCT116 WT (Dicer) versus Dicer-/-; 48 hrs; Flavopiridol, CR8#13, F07#13 100 nm, 9AA 1000 nm
Method: Six hours later, the transfected cells were treated with DMSO, Flavopirodol (100 nm), CR8#13 (100 nm), F07#13 (100 nm), and 9AA (1000 nm). Treated cells were incubated in complete DMEM for 48 hrs at 37° C. Cells were harvested and cell extracts were used for CAT analysis. One tenth the amount of HCT116 Dicer−/−extract compared to HCT116 WT was used for CAT analysis. […] The corresponding bar graphs in A and B show values that represent the percentage of conversion of the [14C] chloramphenicol substrate in the CAT assay.
Various cells lines were transfected with the HIV-1 LTRCAT plasmid and pc-Tat to initiate the LTR transcription, and subsequently subjected to various drug treatments. After 48 hrs, cells were lysed and CAT assays were performed as previously described (Guendel et al, 2009; Van Duyne et al, 2008; Easley et al, 2010).
To evaluate the role on microRNA machinery in inhibition of viral transcription activity, HCT116 colon carcinoma cell lines that either contained a WT Dicer (HCT116 WT) or lacked the Dicer protein (HCT116 Dicer-−/−) were first transfected with the HIV-1 LTR-CAT reporter construct. The HIV-1 LTR transcription was activated with pc-Tat and following incubation for 6 hours was treated with DMSO (negative control), Flavopiridol (positive control), CR8#13, F07#13, or 9AA.
Cells were harvested 48 hrs-post treatment and processed for CAT assays (FIGS. 3A and B). […] Based on this observation the inventors hypothesize that the microRNA machinery, Dicer and Drosha, plays an inhibitory role in HIV-1 transcription.

[10] = 10 μM, moderate or poor by effect on viability of infected and uninfected cells

SMILES	% Inhibition (percent dead cells) Jurkat [1]	% Inhibition (percent dead cells) ACH2 [2]	% Inhibition (percent dead cells) U937 [3]	% Inhibition (percent dead cells) CEM [4]	Selectivity [5, 10]	% Inhibition (percent dead cells) U1 [6]	% Inhibition (percent dead cells) OM10.1 [7]	% Inhibition (percent dead cells) J1.1 [8]	other results
CCOc1ccnc2[nH]cc(-c3ccnc(N)n3)c12 [Meriolin4]	++ (~50%)	+++ (~75%)	++ (~50%)	+ (~25%)	High	+++ (~75%)	+++ (~75%)	+++ (~75%)	–
CC[C@H](CO)Nc1nc(Nc2cccc(-c3ccccn3)c2)c2ncn(C(C)C)c2n1 [R-DRF053]	− (1-5%)	− (1-5%)	− (1-5%)	− (1-5%)	Poor	− (1-5%)	− (1-5%)	− (1-5%)	–
CC(C)Oc1ccnc2[nH]cc(-c3ccnc(N)n3)c12 [Meriolin 6]	− (1-5%)	+++ (~75%)	++ (~50%)	− (1-5%)	High	− (1-5%)	++++ (~90%)	+++ (~75%)	–
Nc1c2ccccc2nc2ccccc12 [9AA]	–	–	–	–	–	–	–	–	inhibition of viral transcription (CAT) [9]: only moderate inhibitory effects
CC(C)c1cnn2c(NCc3ccc(-c4ccccn4)cc3)nc(N[C@H](CO)C(C)O)nc12 (stereo partly drawn) [MRT3-007, (2R, 3R)-2-(8-isopropyl-4-(4-(pyridine-2-yl)benzylamino)pyrazolo[1,5-α]-1,3,5-triazine-2-ylamino)butane-1,3-diol]	–	–	–	–	–	–	–	–	inhibition at 0.05 µM ([1]; Homo sapiens, Jurkat, 50 nM, 48 hrs, read-out: Inhibition Percentage Jurkat): 25%; inhibition at 0.05 µM ([2]; Human immunodeficiency virus 1, ACH-2, 48 h, 50 nM, 48 hrs, read-out: Inhibition Percentage ACH2): 50%; inhibition at 0.05 µM ([3]; Homo sapiens, U-937, 50 nM, 48 hrs, read-out: Inhibition Percentage U937): 25%; inhibition at 0.05 µM ([4]; Homo sapiens, CCRF-CEM, 48 h, 50 nM, 48 hrs, read-out: Inhibition Percentage CEM): 25%; Selectivity ([5]; 50 nM, moderate or poor): Moderate; inhibition at 0.05 µM ([6]; Human immunodeficiency virus 1, 48 h, 50 nM, 48 hrs, read-out: Inhibition Percentage U1): 50%; inhibition at 0.05 µM ([7]; Human immunodeficiency virus 1, 50 nM, 48 hrs, read-out: Inhibition Percentage OM10.1): 50%; inhibition at 0.05 µM ([8]; Human immunodeficiency virus 1, 48 h, 50 nM, 48 hrs, read-out: Inhibition Percentage J1.1): 50%
CN1C(=O)C(=C2Nc3ccccc3C2=NO)c2cccc(Br)c21 [1-methyl-7-bromo-indirubin-3′-oxime]	− (1-5%)	− (1-5%)	− (1-5%)	− (1-5%)	Poor	− (1-5%)	− (1-5%)	− (1-5%)	–
Nc1nccc(-c2c3c(O)ccnc3n3c(N)nccc23)n1 [Variollin B]	− (1-5%)	++ (~50%)	− (1-5%)	− (1-5%)	Moderate	− (1-5%)	− (1-5%)	+ (~25%)	–
COc1ccnc2[nH]cc(-c3ccnc(N)n3)c12 [Meriolin 3]	− (1-5%)	++ (~50%)	− (1-5%)	− (1-5%)	Moderate	− (1-5%)	− (1-5%)	+ (~25%)	–
CC[C@H](CO)Nc1nc(NCc2ccc(-c3ccccn3)cc2)n2ncc(C(C)C)c2n1 [MRT3-028, R-2-(8-isopropyl-4-(4-(pyridine-2-yl)benzylamino)pyrazolo[1,5-α]-1,3,5-triazine-2-ylamino)butan-1-ol]	–	–	–	–	–	–	–	–	Inhibition Percentage ACH2 ([2]; 50 nM, 48 hrs): +++ (~75%); Inhibition Percentage CEM ([4]; 50 nM, 48 hrs): ++ (~50%); Selectivity ([5]; 50 nM, moderate or poor): High; Inhibition Percentage U1 ([6]; 50 nM, 48 hrs): + (~25%); Inhibition Percentage J1.1 ([8]; 50 nM, 48 hrs): +++ (~75%)
CCCOc1ccnc2[nH]cc(-c3ccnc(N)n3)c12 [Meriolin5]	− (1-5%)	+++ (~75%)	++ (~50%)	− (1-5%)	High	− (1-5%)	++++ (~90%)	++ (~50%)	–
